Here are results for 19 compounds from PMC3870094 (Environmental science & technology, 2013).

The structures appear in SMILES notation. Where “and” joins values, the source holds several entries; their conditions need not be identical. Equal entries are not always repeated.

The target of data set [1] is T1, Rat CYP2B1 (Rattus norvegicus, UniProt P00176).
T1 sequence (P00176 1-491): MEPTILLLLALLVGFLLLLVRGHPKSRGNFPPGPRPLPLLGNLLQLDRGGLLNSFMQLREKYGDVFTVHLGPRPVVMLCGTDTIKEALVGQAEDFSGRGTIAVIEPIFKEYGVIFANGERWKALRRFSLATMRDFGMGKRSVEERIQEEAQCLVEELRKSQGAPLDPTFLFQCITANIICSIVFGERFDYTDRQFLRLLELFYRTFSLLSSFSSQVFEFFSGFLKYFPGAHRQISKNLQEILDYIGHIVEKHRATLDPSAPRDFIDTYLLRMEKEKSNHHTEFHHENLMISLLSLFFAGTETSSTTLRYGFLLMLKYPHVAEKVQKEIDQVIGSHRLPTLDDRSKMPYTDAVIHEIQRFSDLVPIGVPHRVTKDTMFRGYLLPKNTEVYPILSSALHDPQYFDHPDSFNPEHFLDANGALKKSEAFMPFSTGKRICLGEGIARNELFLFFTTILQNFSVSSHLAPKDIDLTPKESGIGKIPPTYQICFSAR
The conditions noted are these: for Depletion of OH-PCB after 60 min: rat CYP2B1, OH-PCB as substrate; for EF of OH-PCB substrate after biotransformation: rat CYP2B1, racemic OH-PCB as substrate; for Average EF of 5-OH-PCB metabolite: formed from parent PCB by rat CYP2B1, 60 min, two enantioselective columns; for Biotransformation activity of atropisomer compared with antipode: Fig. 1A1; for Formation of 4,5-DiOH-PCB from PCB: Fig. 1B1; for 4-OH-PCB metabolites detected by GC-ECD: not confirmed by GC-MS; for Depletion of PCB after 60 min incubation: rat CYP2B1, 1000 ng/mL PCB.

Data set [2] deals with T1, Rat CYP2B1. It is filed as in vitro ADME. The following applies: for Formation of metabolite with increases in initial (+)-PCB 136 concentration: 500 ng (−)-PCB 136 as major substrate.
For data set [3] the following is noted: cited from earlier work; for EF of OH-PCB 95 in the liver: female C57Bl/6 mice.
The subject of data set [4] is rat liver microsomes. The conditions noted are these: cited from earlier work.
The conditions of data set [5]: Sprague-Dawley rats, intraperitoneal injection of PCB 136; cited from earlier work.
For data set [6] the following is noted: cited from earlier work.

`Oc1c(O)c(Cl)c(-c2cc(Cl)ccc2Cl)c(Cl)c1Cl` [4,5-95, 3,4-dihydroxy −2,2',5,5',6-pentachlorobiphenyl]: in data set [1] (rat CYP2B1, 4-95 incubation, 60 min), the “EF of 4,5-95 formed” value was determined as 0.53.

Turning to `Oc1c(O)c(Cl)c(-c2c(Cl)ccc(Cl)c2Cl)c(Cl)c1Cl` [4,5-136, 3,4-dihydroxy −2,2',3',5,6,6'-hexachlorobiphenyl], in data set [2] (60 min), the “Formation of metabolite with increases in initial (+)-PCB 136 concentration” value is recorded as “significantly decreased”.

Turning to `Oc1cc(Cl)c(-c2cc(Cl)ccc2Cl)c(Cl)c1Cl` [4-95, 2,2',3,5',6-pentachlorobiphenyl-4-ol], the “EF of OH-PCB 95 in the liver” value in data set [3] is recorded as “about 0.20”. In addition, in data set [1] (60 min), the “Depletion of OH-PCB after 60 min” value was found to be 40% and the “EF of OH-PCB substrate after biotransformation” value is recorded as 0.62.

For `Oc1cc(Cl)c(-c2c(Cl)ccc(Cl)c2Cl)c(Cl)c1Cl` [4-136, 2,2',3,3',6,6'-hexachlorobiphenyl-4-ol], the “Formation of metabolite with increases in initial (−)-PCB 136 concentration” value in data set [2] (500 ng (+)-PCB 136 as major substrate, 60 min) is on record as “significant increase”. Besides, the “Formation of metabolite with increases in initial (+)-PCB 136 concentration” value in data set [2] (60 min) is recorded as “significantly decreased”.

For the compound `Oc1cc(Cl)c(Cl)c(-c2ccc(Cl)cc2Cl)c1Cl` [5-91, 2,2',3,4',6-pentachlorobiphenyl-5-ol], the “EF of 5-OH-PCB from incubation of parent PCB with rat liver microsomes” value (“EF of 5-OH-PCB … with rat liver microsomes” below) in data set [4] was 0.54. Moreover, in data set [1], the “Average EF of 5-OH-PCB metabolite” value was 0.17.

`Oc1cc(Cl)c(Cl)c(-c2cc(Cl)ccc2Cl)c1Cl` [5-95, 2,2',3,5',6-pentachlorobiphenyl-5-ol]: in data set [4], the “EF of 5-OH-PCB … with rat liver microsomes” value is reported as 0.36. Moreover, the “EF of OH-PCB 95 in the liver” value in data set [3] is reported as about 0.65. The “Average EF of 5-OH-PCB metabolite” value in data set [1] is 0.20 and ~ 0.20. Also, the “Biotransformation activity of 5-95 compared with 4-95” value in data set [1] (rat CYP2B1, 60 min, Fig. 2A1) was “significantly greater biotransformation activity”. In data set [1] (60 min), the “Depletion of OH-PCB after 60 min” value was found to be 64% and the “EF of OH-PCB substrate after biotransformation” value is reported as 0.46.

Consider `Oc1cc(Cl)c(Cl)c(-c2c(Cl)ccc(Cl)c2Cl)c1Cl` [5-136, 2,2',3,3',6,6'-hexachlorobiphenyl-5-ol], for which, in data set [4], the “EF of 5-OH-PCB … with rat liver microsomes” value is given as 0.70. Besides, the “EF of 5-136 in livers” value in data set [5] is reported as “≈ 0.4”. Further, the “Average EF of 5-OH-PCB metabolite” value in data set [1] worked out at 0.77. Besides, the “Formation of metabolite with increases in initial (+)-PCB 136 concentration” value in data set [2] (60 min) is “not influenced”.

Consider `Oc1cc(Cl)c(Cl)c(-c2cc(Cl)c(Cl)cc2Cl)c1Cl` [5-149, 2,2',4',5,5',6-hexachlorobiphenyl-3-ol], for which the “EF of 5-OH-PCB … with rat liver microsomes” value in data set [4] is given as 0.66. For the same compound, the “Average EF of 5-OH-PCB metabolite” value in data set [1] turned out to be 0.41.

Regarding `Oc1cc(Cl)c(Cl)c(-c2ccc(Cl)c(Cl)c2Cl)c1Cl` [5’-132, 2,2',3,3',4',6-hexachlorobiphenyl-5-ol], the “EF of 5-OH-PCB … with rat liver microsomes” value in data set [4] is 0.30. The “Average EF of 5-OH-PCB metabolite” value in data set [1] is listed as 0.85.

`Clc1ccc(Cl)c(-c2c(Cl)ccc(Cl)c2Cl)c1Cl` [(+)-PCB 136]: the “Biotransformation activity of atropisomer compared with antipode” value in data set [1] (rat CYP2B1, 60 min) is “significantly higher than their respective antipodes”. The “Biotransformation activity of (+)-PCB 136 in the presence of (−)-PCB 136” value in data set [2] (500 ng (+)-PCB 136, 0-500 ng/mL (−)-PCB 136, 60 min) is recorded as “not significantly affected”.

Turning to `Clc1ccc(-c2c(Cl)ccc(Cl)c2Cl)c(Cl)c1Cl` [(−)-132], the “Biotransformation activity of atropisomer compared with antipode” value in data set [1] (rat CYP2B1, 60 min) is “significantly higher than their respective antipodes”.

For the compound `Clc1ccc(Cl)c(-c2c(Cl)ccc(Cl)c2Cl)c1Cl` [(−)-PCB 136], the “5-136 atropisomer formed in pure atropisomer incubation” value in data set [2] (pure (−)-PCB 136 incubations, Fig. 4A2) is on record as “E1-5-136 was the only metabolite”.

On to `Clc1ccc(-c2c(Cl)ccc(Cl)c2Cl)c(Cl)c1` [E1-91], for which, in data set [1] (rat CYP2B1, 60 min), the “Biotransformation activity of atropisomer compared with antipode” value is given as “significantly higher than their respective antipodes”.

On to `Clc1ccc(Cl)c(-c2c(Cl)ccc(Cl)c2Cl)c1` [E2-95], for which the “Biotransformation activity of atropisomer compared with antipode” value in data set [1] (rat CYP2B1, 60 min) is on record as “significantly higher than their respective antipodes”.

`Clc1ccc(-c2c(Cl)ccc(Cl)c2Cl)c(Cl)c1` [PCB 91, 2,2',3,4',6-pentachlorobiphenyl]: the “Yield of 5-OH-PCB metabolite in rat liver microsomal studies” value (“Yield of 5-OH-PCB metabolite” below) in data set [4] is given as 20%. For the same compound, in data set [1] (rat CYP2B1, 60 min), the “Formation of 4,5-DiOH-PCB from PCB” value is recorded as “minor metabolites” and the “4-OH-PCB metabolites detected by GC-ECD” value is given as “minor products”.

Consider `Clc1ccc(Cl)c(-c2c(Cl)ccc(Cl)c2Cl)c1` [PCB 95, 2,2',3,5',6-pentachlorobiphenyl], for which the “Yield of 5-OH-PCB metabolite” value in data set [4] is listed as 8.8%. Moreover, the “4-OH-PCB metabolites detected by GC-ECD” value in data set [1] (rat CYP2B1, 60 min) is listed as “minor products”. In addition, the “EF of PCB in vivo in rats” value in data set [6] is recorded as over 0.5.

On to `Clc1ccc(-c2c(Cl)ccc(Cl)c2Cl)c(Cl)c1Cl` [PCB 132, 2,2',3,3',4,6'-hexachlorobiphenyl], for which the “Yield of 5-OH-PCB metabolite” value in data set [4] is given as 16%. Moreover, the “Depletion of PCB after 60 min incubation” value in data set [1] (60 min) is recorded as 11%.

Take `Clc1ccc(Cl)c(-c2c(Cl)ccc(Cl)c2Cl)c1Cl` [PCB 136, 2,2',3,3',6,6'-hexachlorobiphenyl]: in data set [4] (30 min), the “EF of PCB after 30 min microsomal incubation” value is given as 0.40. Further, in data set [4], the “Yield of 5-OH-PCB metabolite” value is 22%. In addition, the “EF of PCB in mice tissues after oral administration” value in data set [3] (C57Bl/6 female mice tissues, oral administration) was about 0.7. For the same compound, the “Depletion of PCB after 60 min incubation” value in data set [1] (60 min) was 21%. In data set [1] (rat CYP2B1, 60 min), the “Formation of 4,5-DiOH-PCB from PCB” value is “minor metabolites” and the “4-OH-PCB metabolites detected by GC-ECD” value is “minor products”.

On to `Clc1cc(Cl)c(-c2c(Cl)ccc(Cl)c2Cl)cc1Cl` [PCB 149, 2,2',3,4',5',6-hexachlorobiphenyl], for which the “EF of PCB 149 after 30 min biotransformation by rat liver microsomes” value in data set [4] (30 min) is on record as 0.46. Also, in data set [4], the “Yield of 5-OH-PCB metabolite” value is listed as 2.6%. Moreover, the “Depletion of PCB after 60 min incubation” value in data set [1] (60 min) was 4%. In addition, the Stereoselectivity of biotransformation result in data set [1] (rat CYP2B1, 60 min) is on record as “no apparent stereoselectivity”.
